Values joined by “and” are separate entries in the source; they are usually repeats but may differ in a detail not shown here. Identical values can stand only once. Toxic doses and inconclusive results are not listed. Peptide text beside a SMILES is read from it.
Test system: P388 leukemia ip, CD2F1 mice, survival T/C
Assay: NCI In Vivo Anticancer Drug Screen. Data for tumor model P388 Leukemia (intraperitoneal) in CD2F1 (CDF1) mice
Conditions: endpoint: median survival time, higher = longer survival
Method in brief: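 Mice carrying the transplanted tumor received test compound or vehicle. Survival was recorded in each group, and the value is the treated-group measurement divided by that of the vehicle-treated control group.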

[1] = dose: 50.0 mg/kg/injection, schedule: Q01DX005 (ip), vehicle: saline with Tween-80
[2] = dose: 100.0 mg/kg/injection, schedule: Q01DX005 (ip), vehicle: saline with Tween-80
[3] = dose: 200.0 mg/kg/injection, schedule: Q01DX005 (ip), vehicle: saline with Tween-80
[4] = dose: 50.0 mg/kg/injection, schedule: Q01DX005 (ip), vehicle: Klucel (hydroxypropylcellulose) (HPC)
[5] = dose: 100.0 mg/kg/injection, schedule: Q01DX005 (ip), vehicle: Klucel (hydroxypropylcellulose) (HPC)
[6] = dose: 200.0 mg/kg/injection, schedule: Q01DX005 (ip), vehicle: Klucel (hydroxypropylcellulose) (HPC)
[7] = dose: 60.0 mg/kg/injection, schedule: Q01DX005 (ip), vehicle: saline with Tween-80
[8] = dose: 120.0 mg/kg/injection, schedule: Q01DX005 (ip), vehicle: saline with Tween-80
[9] = dose: 240.0 mg/kg/injection, schedule: Q01DX005 (ip), vehicle: saline with Tween-80
[10] = dose: 50.0 mg/kg/injection, schedule: Q01DX009 (ip), vehicle: saline
[11] = dose: 100.0 mg/kg/injection, schedule: Q01DX009 (ip), vehicle: saline
[12] = dose: 200.0 mg/kg/injection, schedule: Q01DX009 (ip), vehicle: saline

## Cc1c2oc3c(C)ccc(C(=O)OCCN4CCOCC4)c3nc-2c(C(=O)OCCN2CCOCC2)c(N)c1=O
dose: 3.13 mg/kg/injection, schedule: Q01DX009 (ip), vehicle: saline with Tween-80
  T/C: 112 % of control
dose: 6.25 mg/kg/injection, schedule: Q01DX009 (ip), vehicle: saline with Tween-80
  T/C: 110 % of control
dose: 12.5 mg/kg/injection, schedule: Q01DX009 (ip), vehicle: saline with Tween-80
  T/C: 119 % of control
dose: 25.0 mg/kg/injection, schedule: Q01DX009 (ip), vehicle: saline with Tween-80
  T/C: 111 % of control

## Cc1ncc(C(N)=O)c2c1OC(C)(C)OC2
[1]
  T/C: 100 % of control
[2]
  T/C: 100 % of control
[3]
  T/C: 99 % of control

## CC(=O)OCC(=O)[C@@]12OC(C)(C)O[C@@H]1C[C@H]1[C@@H]3CC(C=O)=C4C=C(OCCCl)CC[C@]4(C)[C@@]3(F)[C@@H](O)C[C@@]12C
dose: 0.39 mg/kg/injection, schedule: Q01DX009 (ip), vehicle: Klucel (hydroxypropylcellulose) (HPC)
  T/C: 106 % of control
dose: 0.78 mg/kg/injection, schedule: Q01DX009 (ip), vehicle: Klucel (hydroxypropylcellulose) (HPC)
  T/C: 113 % of control
dose: 1.56 mg/kg/injection, schedule: Q01DX009 (ip), vehicle: Klucel (hydroxypropylcellulose) (HPC)
  T/C: 115 % of control

## N#Cc1c(F)cccc1N(Cc1cccnc1)C(=S)Nc1ccc(Cl)c(Cl)c1
[4]
  T/C: 110 % of control
[5]
  T/C: 110 % of control
[6]
  T/C: 105 % of control

## CP(=O)(N/N=C\C(=O)O)c1ccccc1 (stereo not given)
dose: 12.5 mg/kg/injection, schedule: Q01DX009 (ip), vehicle: other
  T/C: 99 % of control
dose: 25.0 mg/kg/injection, schedule: Q01DX009 (ip), vehicle: other
  T/C: 91 % of control
dose: 50.0 mg/kg/injection, schedule: Q01DX009 (ip), vehicle: other
  T/C: 100 % of control
dose: 100.0 mg/kg/injection, schedule: Q01DX009 (ip), vehicle: other
  T/C: 97 % of control
dose: 200.0 mg/kg/injection, schedule: Q01DX009 (ip), vehicle: other
  T/C: 98 % of control
dose: 400.0 mg/kg/injection, schedule: Q01DX009 (ip), vehicle: other
  T/C: 97 % of control

## O=c1c2ccccc2sc2c([N+](=O)[O-])ccc(NCC3CCCN4CCCCC34)c12 (stereo not given)
dose: 38.5 mg/kg/injection, schedule: Q01DX005 (ip), vehicle: saline with Tween-80
  T/C: 96 % of control
dose: 77.0 mg/kg/injection, schedule: Q01DX005 (ip), vehicle: saline with Tween-80
  T/C: 96 % of control
dose: 154.0 mg/kg/injection, schedule: Q01DX005 (ip), vehicle: saline with Tween-80
  T/C: 118 % of control

## CC(N)CCC(C)(C)O (stereo not given)
dose: 25.0 mg/kg/injection, schedule: Q04DX003 (ip), vehicle: saline
  T/C: 100 % of control
dose: 50.0 mg/kg/injection, schedule: Q04DX003 (ip), vehicle: saline
  T/C: 90 % of control
dose: 100.0 mg/kg/injection, schedule: Q04DX003 (ip), vehicle: saline
  T/C: 100 % of control

## CCCCNc1nc(SC)nc2nc[nH]c12
dose: 50.0 mg/kg/injection, schedule: Q04DX003 (ip), vehicle: saline with Tween-80
  T/C: 100 % of control
dose: 100.0 mg/kg/injection, schedule: Q04DX003 (ip), vehicle: saline with Tween-80
  T/C: 98 % of control
dose: 200.0 mg/kg/injection, schedule: Q04DX003 (ip), vehicle: saline with Tween-80
  T/C: 96 % of control
dose: 400.0 mg/kg/injection, schedule: Q04DX003 (ip), vehicle: saline with Tween-80
  T/C: 95 % of control

## COc1ccc(-n2cc(-c3ccc(Cl)cc3)c3c(N)ncnc32)cc1
[7]
  T/C: 105 % of control
[8]
  T/C: 94 % of control
[9]
  T/C: 86 % of control

## Cc1ccc(S(=O)(=O)N/N=C/c2c(-c3ccc(-c4ccccc4)cc3)nc3sccn23)cc1
dose: 100.0 mg/kg/injection, schedule: Q01DX001 (ip), vehicle: Klucel (hydroxypropylcellulose) (HPC)
  T/C: 94 % of control
dose: 200.0 mg/kg/injection, schedule: Q01DX001 (ip), vehicle: Klucel (hydroxypropylcellulose) (HPC)
  T/C: 86 % of control
dose: 400.0 mg/kg/injection, schedule: Q01DX001 (ip), vehicle: Klucel (hydroxypropylcellulose) (HPC)
  T/C: 88 % of control

## C1CCC(N=C(NC2CCCCC2)N2CCOCC2)CC1
dose: 6.25 mg/kg/injection, schedule: Q01DX009 (ip), vehicle: saline
  T/C: 99 % of control
dose: 12.5 mg/kg/injection, schedule: Q01DX009 (ip), vehicle: saline
  T/C: 99 % of control
dose: 25.0 mg/kg/injection, schedule: Q01DX009 (ip), vehicle: saline
  T/C: 100 % of control
[10]
  T/C: 89 % of control

## O=C(Nc1ccc(Cl)c(Cl)c1)/C(Cl)=C1/Sc2ccccc2NC1=O
[7]
  T/C: 105 % of control
[8]
  T/C: 105 % of control
[9]
  T/C: 105 % of control

## CCOC(=Nc1ccc([N+](=O)[O-])cc1)SC(c1ccccc1)(c1ccccc1)c1ccccc1
[1]
  T/C: 103 % of control
[2]
  T/C: 91 % of control
[3]
  T/C: 88 % of control

## NC(Cc1ccc(OC2CCCC2)c(N(CCCl)CCCl)c1)C(=O)O (stereo not given)
dose: 7.5 mg/kg/injection, schedule: Q04DX003 (ip), vehicle: saline
  T/C: 168 % of control
dose: 15.0 mg/kg/injection, schedule: Q04DX003 (ip), vehicle: saline
  T/C: 168 % of control
dose: 30.0 mg/kg/injection, schedule: Q04DX003 (ip), vehicle: saline
  T/C: 218 % of control

## CCOC(=O)C1=C(C)NC(=O)NC1c1cc(OC)c(OC)c(OC)c1 (stereo not given)
[4]
  T/C: 98 % of control
[5]
  T/C: 96 % of control
[6]
  T/C: 94 % of control

## Cc1cc(/C=C/c2ccccc2)nc(/C=C/c2ccccc2)c1
[7]
  T/C: 104 % of control
[8]
  T/C: 97 % of control
[9]
  T/C: 100 % of control

## CCCCCCCCC(C(=O)N/N=C(\C)c1ccccc1)C(=O)N/N=C(\C)c1ccccc1
[10]
  T/C: 101 % of control
[11]
  T/C: 105 % of control
[12]
  T/C: 100 % of control

## CC(C)C(NC(=O)C(N)CCC(=O)O)C(=O)O (stereo not drawn) (H-Glu-Val-OH; configuration not given here)
[1]
  T/C: 93 % of control
[2]
  T/C: 100 % of control
[3]
  T/C: 93 % of control

## CC[n+]1cccc(O)c1
[10]
  T/C: 105 % of control and 94 % of control
[11]
  T/C: 95 % of control and 96 % of control
[12]
  T/C: 107 % of control and 95 % of control
dose: 400.0 mg/kg/injection, schedule: Q01DX009 (ip), vehicle: saline
  T/C: 100 % of control and 105 % of control

## N#CC1CCN(Cc2ccccc2)C(C#N)C1 (stereo not given)
dose: 15.0 mg/kg/injection, schedule: Q01DX005 (ip), vehicle: Klucel (hydroxypropylcellulose) (HPC)
  T/C: 105 % of control
dose: 30.0 mg/kg/injection, schedule: Q01DX005 (ip), vehicle: Klucel (hydroxypropylcellulose) (HPC)
  T/C: 106 % of control
dose: 60.0 mg/kg/injection, schedule: Q01DX005 (ip), vehicle: Klucel (hydroxypropylcellulose) (HPC)
  T/C: 102 % of control and 106 % of control

## NC(CO)C(=O)NCCS(=O)(=O)O (stereo not given)
dose: 60.0 mg/kg/injection, schedule: Q01DX005 (ip), vehicle: saline
  T/C: 104 % of control
dose: 120.0 mg/kg/injection, schedule: Q01DX005 (ip), vehicle: saline
  T/C: 99 % of control
dose: 240.0 mg/kg/injection, schedule: Q01DX005 (ip), vehicle: saline
  T/C: 99 % of control

## COc1cc(CC#N)c(S(=O)O)cc1OC
dose: 50.0 mg/kg/injection, schedule: Q01DX009 (ip), vehicle: saline with Tween-80
  T/C: 116 % of control
dose: 100.0 mg/kg/injection, schedule: Q01DX009 (ip), vehicle: saline with Tween-80
  T/C: 109 % of control
dose: 200.0 mg/kg/injection, schedule: Q01DX009 (ip), vehicle: saline with Tween-80
  T/C: 114 % of control

## c1ccc2c(c1)[nH]c1c2nc2ccccn21
dose: 25.0 mg/kg/injection, schedule: Q01DX005 (ip), vehicle: Klucel (hydroxypropylcellulose) (HPC)
  T/C: 105 % of control and 107 % of control
[4]
  T/C: 105 % of control and 108 % of control and 113 % of control
[5]
  T/C: 124 % of control

## CN(C)c1ccc(C(=C2C=CC(=[N+](C)C)C=C2)c2ccccc2Cl)cc1
dose: 1.56 mg/kg/injection, schedule: Q01DX005 (ip), vehicle: saline with Tween-80
  T/C: 117 % of control
dose: 3.13 mg/kg/injection, schedule: Q01DX005 (ip), vehicle: saline with Tween-80
  T/C: 117 % of control and 121 % of control
dose: 6.25 mg/kg/injection, schedule: Q01DX005 (ip), vehicle: saline with Tween-80
  T/C: 118 % of control (2×) and 121 % of control
dose: 12.5 mg/kg/injection, schedule: Q01DX005 (ip), vehicle: saline with Tween-80
  T/C: 112 % of control and 88 % of control

## O=C(Nc1ccc(Cl)cc1)Nc1nnc(Cc2ccc(Cl)cc2)o1
[1]
  T/C: 99 % of control
[2]
  T/C: 87 % of control

## CCOc1ccc(N=Nc2ccc(N)cc2N)cc1
dose: 100.0 mg/kg/injection, schedule: Q01DX009 (ip), vehicle: Klucel (hydroxypropylcellulose) (HPC)
  T/C: 118 % of control
dose: 200.0 mg/kg/injection, schedule: Q01DX009 (ip), vehicle: Klucel (hydroxypropylcellulose) (HPC)
  T/C: 100 % of control
dose: 400.0 mg/kg/injection, schedule: Q01DX009 (ip), vehicle: Klucel (hydroxypropylcellulose) (HPC)
  T/C: 93 % of control
